Where a name gives a salt, the structure may show the parent alone.
Biological target: T1, recombinant guanylate cyclase reporter cell line (Rattus norvegicus, UniProt P19686+P20595)
T1 construct: expressed in transfected cells
T1 sequence (P19686 1-690): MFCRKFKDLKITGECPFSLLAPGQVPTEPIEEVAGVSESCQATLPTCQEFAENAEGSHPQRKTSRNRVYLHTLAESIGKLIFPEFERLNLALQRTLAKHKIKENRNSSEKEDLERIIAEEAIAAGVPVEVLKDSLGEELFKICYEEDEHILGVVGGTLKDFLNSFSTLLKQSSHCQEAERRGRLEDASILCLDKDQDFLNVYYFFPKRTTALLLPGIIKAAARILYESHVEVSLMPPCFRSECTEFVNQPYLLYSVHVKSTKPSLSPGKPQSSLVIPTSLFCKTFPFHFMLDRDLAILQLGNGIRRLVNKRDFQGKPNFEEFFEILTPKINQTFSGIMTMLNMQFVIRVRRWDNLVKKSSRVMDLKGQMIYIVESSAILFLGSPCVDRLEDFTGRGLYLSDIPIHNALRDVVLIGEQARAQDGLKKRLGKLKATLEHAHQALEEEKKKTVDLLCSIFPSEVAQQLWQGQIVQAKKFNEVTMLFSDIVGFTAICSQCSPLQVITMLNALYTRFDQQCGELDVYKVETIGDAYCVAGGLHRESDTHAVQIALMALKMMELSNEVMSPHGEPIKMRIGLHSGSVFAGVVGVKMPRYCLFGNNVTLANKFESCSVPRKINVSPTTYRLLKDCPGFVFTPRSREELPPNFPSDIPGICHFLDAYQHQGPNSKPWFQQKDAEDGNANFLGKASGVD
T1 sequence (P20595 1-619): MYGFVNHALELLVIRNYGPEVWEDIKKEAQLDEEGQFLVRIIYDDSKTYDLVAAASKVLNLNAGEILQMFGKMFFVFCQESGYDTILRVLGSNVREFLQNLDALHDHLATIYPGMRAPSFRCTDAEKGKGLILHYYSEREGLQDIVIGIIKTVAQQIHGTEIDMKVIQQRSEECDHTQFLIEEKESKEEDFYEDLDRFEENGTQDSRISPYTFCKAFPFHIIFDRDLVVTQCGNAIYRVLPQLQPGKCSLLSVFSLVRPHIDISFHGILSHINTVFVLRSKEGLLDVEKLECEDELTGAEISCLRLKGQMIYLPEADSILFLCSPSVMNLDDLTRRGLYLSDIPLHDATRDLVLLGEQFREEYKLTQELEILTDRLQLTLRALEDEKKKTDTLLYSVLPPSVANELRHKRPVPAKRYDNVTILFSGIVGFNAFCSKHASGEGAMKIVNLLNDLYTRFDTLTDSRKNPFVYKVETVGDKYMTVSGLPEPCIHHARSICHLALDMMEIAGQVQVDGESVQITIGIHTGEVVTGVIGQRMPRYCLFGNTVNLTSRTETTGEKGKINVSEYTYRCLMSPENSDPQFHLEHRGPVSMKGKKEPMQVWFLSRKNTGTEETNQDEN
Test: Effect on a recombinant guanylate cyclase reporter cell line (B-2)
Assay type: cell-based
Details: in some cases mean values for individual determinations
Experimental: B-2. Effect on a Recombinant Guanylate Cyclase Reporter Cell Line
The cellular effect of the inventive compounds is determined using a recombinant guanylate cyclase reporter cell line, as described in F. Wunder et al., Anal. Biochem. 339, 104-112 (2005).
Representative MEC values (MEC=minimum effective concentration) for the inventive compounds are shown in the table below (in some cases as mean values for individual determinations): […]

SMILES	MEC (minimum effective concentration) [µM]
Cc1cc(OCc2c(F)ccc(F)c2F)n2nc(C)c(C(=O)NC3CC3c3ccccc3)c2c1 (racemic) [Example 10, rac-2,5-Dimethyl-N-(2-phenylcyclopropyl)-7-[(2,3,6-trifluorobenzyl)oxy]pyrazolo[1,5-a]pyridine-3-carboxamide]	1.0
Cc1cc(OCc2c(F)ccc(F)c2F)n2nc(C)c(C(=O)NCC(C)(N)C3CC3)c2c1 (racemic) [Example 13, rac-N-(2-Amino-2-cyclopropylpropyl)-2,5-dimethyl-7-[(2,3,6-trifluorobenzyl)oxy]pyrazolo[1,5-a]pyridine-3-carboxamide]	1.0
Cc1cc(OCc2c(F)ccc(F)c2F)n2nc(C)c(C(=O)NC(C)c3nc(C(F)(F)F)no3)c2c1 (racemic) [Example 19, rac-2,5-Dimethyl-7-[(2,3,6-trifluorobenzyl)oxy]-N-{1-[3-(trifluoromethyl)-1,2,4-oxadiazol-5-yl]ethyl}pyrazolo[1,5-a]pyridine-3-carboxamide]	0.3
Cc1cc(OCc2c(F)ccc(F)c2F)n2nc(C)c(C(=O)NC(C)COCC(F)(F)F)c2c1 (racemic) [Example 24, rac-2,5-Dimethyl-7-[(2,3,6-trifluorobenzyl)oxy]-N-[1-(2,2,2-trifluoroethoxy)propan-2-yl]pyrazolo[1,5-a]pyridine-3-carboxamide]	0.3
Cc1cc(OCc2c(F)ccc(F)c2F)n2nc(C)c(C(=O)NC(CO)c3ccc(F)cc3)c2c1 (racemic) [Example 30, rac-N-[1-(4-Fluorophenyl)-2-hydroxyethyl]-2,5-dimethyl-7-[(2,3,6-trifluorobenzyl)oxy]pyrazolo[1,5-a]pyridine-3-carboxamide]	0.1
Cc1cc(OCc2c(F)cccc2F)n2nc(C)c(C(=O)NC3CCOc4ncccc43)c2c1 (racemic) [Example 74, rac-7-[(2,6-Difluorobenzyl)oxy]-N-(3,4-dihydro-2H-pyrano[2,3-b]pyridin-4-yl)-2,5-dimethylpyrazolo[1,5-a]pyridine-3-carboxamide trifluoroacetate]	0.03
Cc1cc(OCc2c(F)cccc2F)n2nc(C)c(C(=O)NC3CCN(C)c4ccccc43)c2c1 (racemic) [Example 75, rac-7-[(2,6-Difluorobenzyl)oxy]-2,5-dimethyl-N-(1-methyl-1,2,3,4-tetrahydroquinolin-4-yl)pyrazolo a]pyridine-3-carboxamide trifluoroacetate]	0.03
Cc1cc(OCc2c(F)cccc2F)n2nc(C)c(C(=O)NC3CC(=O)Nc4ccccc43)c2c1 (racemic) [Example 76, rac-7-[(2,6-Difluorobenzyl)oxy]-2,5-dimethyl-N-(2-oxo-1,2,3,4-tetrahydroquinolin-4-yl)pyrazolo[1,5-a]pyridine-3-carboxamide trifluoroacetate]	0.3
Cc1cc(OCc2c(F)cccc2F)n2nc(C)c(C(=O)NC3CC(=O)N(C)c4ccccc43)c2c1 (racemic) [Example 77, rac-7-[(2,6-Difluorobenzyl)oxy]-2,5-dimethyl-N-(1-methyl-2-oxo-1,2,3,4-tetrahydroquinolin-4-yl)pyrazolo[1,5-a]pyridine-3-carboxamide trifluoroacetate]	0.3
Cc1cc(OCc2c(F)cccc2F)n2nc(C)c(C(=O)NCC(C)(N)CCOCc3ccccc3)c2c1 (racemic) [Example 78, rac-N-[2-Amino-4-(benzyloxy)-2-methylbutyl]-7-[(2,6-difluorobenzyl)oxy]-2,5-dimethylpyrazolo[1,5-a]pyridine-3-carboxamide]	1.0
Cc1cc(OCc2c(F)cccc2F)n2nc(C)c(C(=O)NCC3CCc4ccccc4N3)c2c1 (racemic) [Example 82, rac-7-[(2,6-Difluorobenzyl)oxy]-2,5-dimethyl-N-(1,2,3,4-tetrahydroquinolin-2-ylmethyl)pyrazolo[1,5-a]pyridine-3-carboxamide]	1.0
Cc1cc(OCc2c(F)cccc2F)n2nc(C)c(C(=O)NCC3CSCCN3)c2c1 (racemic) [Example 88, rac-7-[(2,6-Difluorobenzyl)oxy]-2,5-dimethyl-N-(thiomorpholin-3-ylmethyl)pyrazolo[1,5-a]pyridine-3-carboxamide]	1.0
Cc1cc(OCc2c(F)cccc2F)n2nc(C)c(C(=O)NC3CCC3(C)N)c2c1 (racemic) [Example 91, rac-N-(2-Amino-2-methylcyclobutyl)-7-[(2,6-difluorobenzyl)oxy]-2,5-dimethylpyrazolo[1,5-a]pyridine-3-carboxamide]	3.0
Cc1cc(OCc2c(F)cccc2F)n2nc(C)c(C(=O)NCC(C)(N)CC(C)C)c2c1 (racemic) [Example 92, rac-N-(2-Amino-2,4-dimethylpentyl)-7-[(2,6-difluorobenzyl)oxy]-2,5-dimethylpyrazolo[1,5-a]pyridine-3-carboxamide]	0.3
Cc1cc(OCc2c(F)cccc2F)n2nc(C)c(C(=O)NCC3CCC(=O)N3)c2c1 (racemic) [Example 95, rac-7-[(2,6-Difluorobenzyl)oxy]-2,5-dimethyl-N-[(5-oxopyrrolidin-2-yl)methyl]pyrazolo[1,5-a]pyridine-3-carboxamide]	10

Other lines, results leading:

MEC (minimum effective concentration) [µM]	SMILES
0.3	Cc1cc(OCc2c(F)cccc2F)n2nc(C)c(C(=O)NCC(C)(N)CCF)c2c1 (racemic) [Example 48, rac-N-(2-Amino-4-fluoro-2-methylbutyl)-7-[(2,6-difluorobenzyl)oxy]-2,5-dimethylpyrazolo[1,5-a]pyridine-3-carboxamide]
3.0	Cc1cc(OCc2c(F)cccc2F)n2nc(C)c(C(=O)NCC(N)C#N)c2c1 (racemic) [Example 59, rac-N-(2-Amino-2-cyanoethyl)-7-[(2,6-difluorobenzyl)oxy]-2,5-dimethylpyrazolo[1,5-a]pyridine-3-carboxamide]
10	Cc1cc(OCc2c(F)cccc2F)n2nc(C)c(C(=O)NCC(N)c3cccc(OCCO)c3)c2c1 (racemic) [Example 72, rac-N-{2-Amino-2-[3-(2-hydroxyethoxy)phenyl]ethyl]-7-[(2,6-difluorobenzyl)oxy]-2,5-dimethylpyrazolo[1,5-a]pyridine-3-carboxamide trifluoroacetate]
3.0	Cc1cc(OCc2c(F)cccc2F)n2nc(C)c(C(=O)NCC(N)c3csc(C)n3)c2c1 (racemic) [Example 73, rac-N-[2-Amino-2-(2-methyl-1,3-thiazol-4-yl)ethyl]-7-[(2,6-difluorobenzyl)oxy]-2,5-dimethylpyrazolo[1,5-a]pyridine-3-carboxamide trifluoroacetate]
3.0	Cc1cc(OCc2c(F)cccc2F)n2nc(C)c(C(=O)NCC(C)(N)COc3ccc(F)c(F)c3)c2c1 (racemic) [Example 79, rac-N-[2-Amino-3-(3,4-difluorophenoxy)-2-methylpropyl]-7-[(2,6-difluorobenzyl)oxy]-2,5-dimethylpyrazolo[1,5-a]pyridine-3-carboxamide]
3.0	CCOC(=O)c1cccc(C(CN)NC(=O)c2c(C)nn3c(OCc4c(F)cccc4F)cc(C)cc23)n1 (racemic) [Example 83, rac-Ethyl 6-{2-amino-1-[({7-[(2,6-difluorobenzyl)oxy]-2,5-dimethylpyrazolo[1,5-a]pyridin-3-yl}carbonyl)amino]ethyl} pyridine-2-carboxylate trifluoroacetate]
0.3	Cc1cc(OCc2c(F)cccc2F)n2nc(C)c(C(=O)NC3CCOc4ccccc43)c2c1 (racemic) [Example 87, rac-7-[(2,6-Difluorobenzyl)oxy]-N-(3,4-dihydro-2H-chromen-4-yl)-2,5-dimethylpyrazolo[1,5-a]pyridine-3-carboxamide]

From patent US9422285B2, “Substituted pyrazolo[1,5-A]-pyridine-3-carboxamides and use thereof” (Bayer Pharma Aktiengesellschaft, priority 2014, dated 2016)
